Measured values from patent US8802597B2, “Herbicidal pyrimidines” (E I du Pont de Nemours and Company, priority 2003, dated 2014).
Read-outs that look alike come from different tables or passages of the source.

Assays:
Type in all cases: in vivo
[1] = system: morningglory (Ipomoea coccinea); experiment: Test C pre/postemergence; conditions: Ipomoea, read-out: Plant response rating, Morningglory; for pest or weed control at 250 g/ha: 250 g ai/ha; for pest or weed control at 500 g/ha: 500 g ai/ha
Procedure, shortened: (§1)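 Applications: preemergence onto seeded soil and postemergence onto 1- to 4-leaf seedlings, compound carried in non-phytotoxic solvent plus surfactant. Kept in greenhouse 12 to 14 days. Scored visually relative to untreated controls, 0 (no effect) to 100 (complete control).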

[2] = system: pigweed (Amaranthus retroflexus); experiment: Test C pre/postemergence; conditions: Amaranthus retroflexus; for pest or weed control at 62 g/ha: 62 g ai/ha; for pest or weed control at 125 g/ha: 125 g ai/ha; for pest or weed control at 250 g/ha: 250 g ai/ha; for pest or weed control at 500 g/ha: 500 g ai/ha
Procedure, shortened: as §1

soybean (Glycine max) = experiment: Test C pre/postemergence; conditions: Glycine max; for plant injury at 62 g/ha: 62 g ai/ha; for plant injury at 125 g/ha: 125 g ai/ha; for plant injury at 250 g/ha: 250 g ai/ha; for plant injury at 500 g/ha: 500 g ai/ha
Procedure, shortened: as §1

[3] = system: woolly cupgrass (Eriochloa villosa); experiment: Test C pre/postemergence; conditions: Eriochloa villosa; for pest or weed control at 62 g/ha: 62 g ai/ha; for pest or weed control at 125 g/ha: 125 g ai/ha; for pest or weed control at 250 g/ha: 250 g ai/ha; for pest or weed control at 500 g/ha: 500 g ai/ha
Procedure, shortened: as §1

[4] = system: yellow nutsedge (Cyperus esculentus); experiment: Test C pre/postemergence; conditions: Cyperus; for pest or weed control at 62 g/ha: 62 g ai/ha; for pest or weed control at 125 g/ha: 125 g ai/ha; for pest or weed control at 250 g/ha: 250 g ai/ha; for pest or weed control at 500 g/ha: 500 g ai/ha
Procedure, shortened: as §1

[5] = system: chickweed (Stellaria media); experiment: Test C postemergence; conditions: Stellaria media, post-emergence
Procedure, shortened: as §1

[6] = post-emergence, Postemergence, scale 0 to 100
[7] = pre-emergence, Preemergence, scale 0 to 100
[8] = post-emergence, Postemergence, scale 0 to 100 (0 no effect, 100 complete control), read-out: Pigweed plant response rating
[9] = post-emergence, Postemergence, scale 0 to 100, read-out: Plant response rating, Pigweed
[10] = pre-emergence, Preemergence, scale 0 to 100, read-out: Plant response rating, Pigweed
[11] = post-emergence, Postemergence, scale 0 to 100 (0 no effect, 100 complete control), read-out: Soybean plant response rating
[12] = post-emergence, Postemergence, scale 0 to 100, read-out: Plant response rating, Soybean
[13] = pre-emergence, Preemergence, scale 0 to 100, read-out: Plant response rating, Soybean
[14] = post-emergence, Postemergence, scale 0 to 100 (0 no effect, 100 complete control), read-out: Cupgrass, Woolly plant response rating
[15] = post-emergence, Postemergence, scale 0 to 100, read-out: Plant response rating, Cupgrass, Woolly
[16] = pre-emergence, Preemergence, scale 0 to 100, read-out: Plant response rating, Cupgrass, Woolly
[17] = post-emergence, Postemergence, scale 0 to 100 (0 no effect, 100 complete control), read-out: Nutsedge, Yellow plant response rating
[18] = post-emergence, Postemergence, scale 0 to 100, read-out: Plant response rating, Nutsedge, Yellow
[19] = pre-emergence, Preemergence, scale 0 to 100, read-out: Plant response rating, Nutsedge, Yellow

Q: `Nc1nc(C2CC2)nc(C(=O)OCc2ccccc2)c1Br` [Compound 22, phenylmethyl 6-amino-5-bromo-2-cyclopropyl-4-pyrimidinecarboxylate] was tested. Which pest or weed control at 250 g/ha [1, 6] did it give?
A: The pest or weed control at 250 g/ha was 95%.

Q: And the pest or weed control at 500 g/ha [1, 6]?
A: Its pest or weed control at 500 g/ha is 100%.

Q: And the pest or weed control at 62 g/ha ([1]; pre-emergence, Preemergence, 62 g ai/ha, scale 0 to 100, 0 no effect, 100 complete control)?
A: Its pest or weed control at 62 g/ha is 100%.

Q: And the pest or weed control at 125 g/ha ([1]; pre-emergence, Preemergence, 125 g ai/ha, scale 0 to 100)?
A: Its pest or weed control at 125 g/ha is 100%.

Q: What about the pest or weed control at 250 g/ha [1, 7] of the same compound?
A: The pest or weed control at 250 g/ha was 100%.

Q: And the pest or weed control at 500 g/ha [1, 7]?
A: Its pest or weed control at 500 g/ha is 100%.

Q: What about the pest or weed control at 62 g/ha [2, 8] of the same compound?
A: The pest or weed control at 62 g/ha was 85%.

Q: And the pest or weed control at 125 g/ha [2, 8]?
A: Its pest or weed control at 125 g/ha is 100%.

Q: And the pest or weed control at 250 g/ha [2, 9]?
A: Its pest or weed control at 250 g/ha is 100%.

Q: What about the pest or weed control at 500 g/ha [2, 9] of the same compound?
A: Its pest or weed control at 500 g/ha is 100%.

Q: And the pest or weed control at 62 g/ha ([2]; pre-emergence, Preemergence, scale 0 to 100, 0 no effect, 100 complete control, read-out: Plant response rating, Pigweed)?
A: Its pest or weed control at 62 g/ha is 90%.

Q: And the pest or weed control at 125 g/ha [2, 10]?
A: The pest or weed control at 125 g/ha was 100%.

Q: And the pest or weed control at 250 g/ha [2, 10]?
A: The pest or weed control at 250 g/ha was 100%.

Q: And the pest or weed control at 500 g/ha [2, 10]?
A: Its pest or weed control at 500 g/ha is 100%.

Q: And the plant injury at 62 g/ha (soybean (Glycine max); [11])?
A: The plant injury at 62 g/ha was 95%.

Q: And the plant injury at 125 g/ha (soybean (Glycine max); [11])?
A: Its plant injury at 125 g/ha is 100%.

Q: And the plant injury at 250 g/ha (soybean (Glycine max); [12])?
A: Its plant injury at 250 g/ha is 100%.

Q: And the plant injury at 500 g/ha (soybean (Glycine max); [12])?
A: The plant injury at 500 g/ha was 100%.

Q: What about the plant injury at 62 g/ha (soybean (Glycine max); pre-emergence, Preemergence, scale 0 to 100, 0 no effect, 100 complete control, read-out: Plant response rating, Soybean) of the same compound?
A: Its plant injury at 62 g/ha is 95%.

Q: And the plant injury at 125 g/ha (soybean (Glycine max); [13])?
A: Its plant injury at 125 g/ha is 95%.

Q: And the plant injury at 250 g/ha (soybean (Glycine max); [13])?
A: Its plant injury at 250 g/ha is 100%.

Q: What about the plant injury at 500 g/ha (soybean (Glycine max); [13]) of the same compound?
A: The plant injury at 500 g/ha was 100%.

Q: What about the pest or weed control at 62 g/ha [3, 14] of the same compound?
A: Its pest or weed control at 62 g/ha is 60%.

Q: And the pest or weed control at 125 g/ha [3, 14]?
A: Its pest or weed control at 125 g/ha is 60%.

Q: And the pest or weed control at 250 g/ha [3, 15]?
A: The pest or weed control at 250 g/ha was 60%.

Q: What about the pest or weed control at 500 g/ha [3, 15] of the same compound?
A: Its pest or weed control at 500 g/ha is 65%.

Q: What about the pest or weed control at 62 g/ha ([3]; pre-emergence, Preemergence, scale 0 to 100, 0 no effect, 100 complete control, read-out: Plant response rating, Cupgrass, Woolly) of the same compound?
A: The pest or weed control at 62 g/ha was 40%.

Q: What about the pest or weed control at 125 g/ha [3, 16] of the same compound?
A: Its pest or weed control at 125 g/ha is 95%.

Q: What about the pest or weed control at 250 g/ha [3, 16] of the same compound?
A: The pest or weed control at 250 g/ha was 95%.

Q: And the pest or weed control at 500 g/ha [3, 16]?
A: Its pest or weed control at 500 g/ha is 95%.

Q: What about the pest or weed control at 62 g/ha [4, 17] of the same compound?
A: Its pest or weed control at 62 g/ha is 0%.

Q: And the pest or weed control at 125 g/ha [4, 17]?
A: Its pest or weed control at 125 g/ha is 0%.

Q: And the pest or weed control at 250 g/ha [4, 18]?
A: The pest or weed control at 250 g/ha was 0%.

Q: What about the pest or weed control at 500 g/ha [4, 18] of the same compound?
A: Its pest or weed control at 500 g/ha is 0%.

Q: What about the pest or weed control at 62 g/ha ([4]; pre-emergence, Preemergence, scale 0 to 100, 0 no effect, 100 complete control, read-out: Plant response rating, Nutsedge, Yellow) of the same compound?
A: The pest or weed control at 62 g/ha was 0%.

Q: What about the pest or weed control at 125 g/ha [4, 19] of the same compound?
A: The pest or weed control at 125 g/ha was 0%.

Q: What about the pest or weed control at 250 g/ha [4, 19] of the same compound?
A: Its pest or weed control at 250 g/ha is 95%.

Q: And the pest or weed control at 500 g/ha [4, 19]?
A: Its pest or weed control at 500 g/ha is 95%.

Q: And the pest or weed control at 62 g/ha ([5]; 62 g ai/ha, scale 0 to 100 (0 no effect, 100 complete control), read-out: Chickweed plant response rating)?
A: The pest or weed control at 62 g/ha was 30%.

Q: And the pest or weed control at 125 g/ha ([5]; 125 g ai/ha, scale 0 to 100 (0 no effect, 100 complete control), read-out: Chickweed plant response rating)?
A: The pest or weed control at 125 g/ha was 60%.

Q: And the pest or weed control at 250 g/ha ([5]; 250 g ai/ha, scale 0 to 100, read-out: Plant response rating, Chickweed)?
A: The pest or weed control at 250 g/ha was 85%.

Q: And the pest or weed control at 500 g/ha ([5]; 500 g ai/ha, scale 0 to 100, read-out: Plant response rating, Chickweed)?
A: The pest or weed control at 500 g/ha was 90%.
